EP0215136B1, “Hexetidin-containing therapeutically active agent, method for its preparation and its use as a vaginal disinfectant” (Artesan Pharma Gesellschaft mit beschränkter Haftung, priority 1985, dated 1987)

Experiments:
[1] = cited from earlier work
[2] = cited from earlier work; remark: listed apart in the source
[3] = Stability of hexetidine in aqueous solution; type: physicochemical; conditions: neutral to weakly acidic aqueous solution; rearranges to two isomers up to an equilibrium
Source text: Aufgrund über Jahre geführter Untersuchungen sind die bekannten Methoden nicht geeignet, ein stabiles pharmazeutisches Präparat herzustellen. […] Es lagert sich bis zu einem Gleichgewicht in zwei isomere Substanzen um. Zwar wirken diese im Prinzip gleichartig, jedoch dürfen sie aus gesundheitsrechtlichen Gründen im Endprodukt nur geringfügig vorhanden sein.

| Structure (SMILES) | Löslichkeit in Alkohol ([1]; Alkohol) | Löslichkeit in Wasser [1] | Löslichkeit in unpolaren organischen Lösungsmitteln ([1]; unpolare organische Lösungsmittel) | Haut- und Schleimhaut-Verträglichkeit ([2]; known property) | Toxizität bei Resorption ([2]; known property) | toxische Wirkung ([2]; use as 0,1% gargle solution over 20 years) | Haltbarkeit in wässeriger Lösung [3] |
| --- | --- | --- | --- | --- | --- | --- | --- |
| CCCCC(CC)CN1CN(CC(CC)CCCC)CC(C)(N)C1 (centres unmarked) [Hexetidin, 1,3-Bis-(2-ethylhexyl)-hexahydro-5-methyl-5-pyrimidinamin] | leicht löslich | nur schwer löslich | leicht löslich | gute | geringe | nie beobachtet | nur kurzfristig haltbar |
| CCCCC(CC)CN1CN(CC(CC)CCCC)CC(C)(N)C1 (centres unmarked) [Hexetidinsalz] | – | leicht löslich | – | – | – | – | – |
